From US12570612B2, “Substituted nitrogen heterocyclic compound and anesthetic effect thereof” (priority 2019, dated 2026)
pEC50: −log10 of the molar value. “Also recorded” adds a separate entry of the source. Like-named read-outs stand apart in the source and are kept apart here.

How the values were obtained:
[1] = tested on: Sprague-Dawley rats; experiment: animal or person; assay type: in vivo; settings: Rattus norvegicus; LORR, up and down method, tail vein, rats; class symbols; read-out: ED50
Description: Evaluating indicator: The end point of anesthesia: LORR was used as the end point of anesthesia; General anesthesia effect: the disappearance of forepaw righting reflex in rats lasting for 30 seconds is taken as the index of general anesthesia effect; Anesthesia recovery index: the recovery of rat forepaw righting reflex was used as the index of anesthesia recovery.

[2] = tested on: Sprague-Dawley rats; experiment: animal or person; settings: for Approximate therapeutic index / Minimal lethal dose: rats
Protocol: Adult male Sprague-Dawley rats (250-300 g) were selected for the experiment. […] The anesthesia effects of the compounds were assessed in rats using a LORR assay and a period >30 s was considered as an indicator of general anesthesia.

[3] = tested on: H295R cell line; experiment: Adrenocortical function in vitro test: secretion of cortisol and corticosterone, Group A compounds; assay type: cell-based; settings: H295 cells; for pEC50: 0.1-10000 nM, HPLC-MS/MS
[4] = tested on: Sprague-Dawley rats; experiment: Pharmacological characteristics at equivalent doses (2ED50), Group A compounds; assay type: in vivo; set-up: Sedation duration: unit not given here; settings: 2ED50, tail vein; for Types and incidence of adverse reactions: (animals affected/animals)
[5] = LORR in rats, tail vein, brackets = 95% confidence limit
[6] = read-out: EC50 (Corticosterone)
[7] = Homo sapiens, read-out: EC50 (Corticosterone)
[8] = Homo sapiens, read-out: EC50 (Cortisol)

| SMILES | ED50 [1] [mg/kg] | ED50 [2, 5] | Approximate therapeutic index [2] | Minimal lethal dose [2] [mg/kg] | Corticosterone as an indicator to determine the presence of inhibition [3] | Cortisol as an indicator to determine the presence of inhibition [3] | pEC50 [3, 6] | pEC50 ([3]; read-out: EC50 (Cortisol)) | Onset time [4] [min] | Righting reflex duration [4] [min] | Sedation duration [4] | Types and incidence of adverse reactions [4] | ED50 ([2]; Rattus norvegicus) [mg/kg] | pEC50 [3, 7] | pEC50 [3, 8] |
| --- | --- | --- | --- | --- | --- | --- | --- | --- | --- | --- | --- | --- | --- | --- | --- |
| CC(=O)COCC(=O)c1c(F)ncn1[C@H](C)c1ccccc1 [Compound C84] | 10 to 20 |  |  |  |  |  |  |  |  |  |  |  |  |  |  |
| CC(=O)OCC(=O)c1cncn1[C@H](C)c1ccccc1 [Compound C53] | 10 to 20 |  |  |  |  |  |  |  |  |  |  |  |  |  |  |
| CCC(CC)OC(=O)c1ccnn1[C@H](C)c1ccccc1 [Compound A21] |  | D (D indicates that the measured ED50 is in the range of 2.00-6.00 mg/kg (excluding 2.00 mg/kg, including 6.00 mg/kg)) | >16 | >6 | 0 | 0 | < 7.00 | < 7.00 | 0.51 ± 0.10 | 1.16 ± 0.39 | 8.65 ± 2.38 | Red and urine(8/8), Euphoria(3/8), and Four limbs Tremor(2/8), and Hindlimb rigidity (2/8) |  |  |  |
| COC(=O)C1=C(OC(=O)c2c(C(F)(F)F)cnn2[C@H](C)c2ccccc2)CCCC1 [Compound A101] |  |  | >8 | >13 | 0 | 0 |  |  | 0.39 ± 0.21 | 2.29 ± 0.65 |  | Red and urine(8/8), Euphoria(3/8), and Nod(2/8) | 1 to 2 | < 7.00 | < 7.00 |
| C#CC1(OC(=O)c2cc(F)nn2[C@H](C)c2ccccc2)COC1 [Compound A53] |  |  | >6 | >14 | 0 | 0 |  |  | 0.53 ± 0.28 | 3.01 ± 1.22 |  | Red and urine(8/8), Tremor(2/8) | 2 to 6 | < 7.00 | < 7.00 |
| CCOC(=O)c1ccnn1[C@H](C)c1ccccc1 [Compound A1] |  |  | >8 | >16 | 0 | 0 |  |  | 0.56 ± 0.26 | 2.24 ± 1.29 |  |  | 1 to 2 | < 6.00 | < 6.00 |
| CC#CCOC(=O)c1c(F)cnn1[C@H](C)c1ccccc1 [Compound A72] |  |  | >100 | >11 | 0 | 0 |  |  | 0.41 ± 0.17 | 0.71 ± 0.20 |  | Red and urine(8/8), Tremor(1/8), and Hindlimb rigidity (1/8) | 0.04 to 0.5 | < 6.00 | < 6.00 |
| C=CC#CC(C)(C)OC(=O)c1ccnn1[C@H](C)c1ccccc1 [Compound A16] |  |  | >4 | >12 | 0 | 0 |  |  | 0.55 ± 0.21 | 2.55 ± 1.54 |  |  | 2 to 6 | < 7.00 | < 7.00 |
| C[C@H](c1ccccc1)n1nccc1C(=O)OC1CSC1 [Compound A6] |  |  | >5 | >13 | 0 | 0 |  |  | 0.38 ± 0.12 | 3.81 ± 2.17 |  | Red urine(8/8), Facial; also recorded: muscle; also recorded: twitching(2/8), Hindlimb; also recorded: rigidity (1/8) | 2 to 6 | < 6.00 | < 6.00 |
| CC#CC(C)OC(=O)c1ccnn1[C@H](C)c1ccccc1 (stereo partly drawn) [Compound A11] |  |  | >4 | >8 | 0 | 0 |  |  | 0.41 ± 0.15 | 2.65 ± 1.10 |  | Red urine(6/6), General; also recorded: Tremor(4/6), Hindlimb; also recorded: rigidity (2/6),; also recorded: Convulsion(1/6),; also recorded: Euphoria(1/6) | 1 to 2 | < 7.00 | < 7.00 |
| C=C=CC1(OC(=O)c2c(F)cnn2[C@H](C)c2ccccc2)COC1 [Compound A73] |  |  | >25 | >2 | 0 | 0 |  |  | 0.42 ± 0.07 | 1.21 ± 0.45 |  | Red and urine(8/8), Tremor(3/8), and Facial muscle and twitching(2/8), Euphoria and (1/8), Nod(1/8) | 0.04 to 0.5 | < 6.00 | < 6.00 |
| CC(=O)C1(OC(=O)c2ccnn2[C@H](C)c2ccccc2)COC1 [Compound A8] |  |  | >7 | >9 | 0 | 0 |  |  | 0.57 ± 0.20 | 2.70 ± 2.52 |  | Red urine(8/8),; also recorded: Tremor(2/8),; also recorded: Euphoria(1/8) | 1 to 2 | < 6.00 | < 6.00 |
| C[C@H](c1ccccc1)n1nccc1C(=O)OCC1CC1 [Compound A3] |  | C (C indicates that the measured ED50 is in the range of 1.00-2.00 mg/kg (excluding 1.00 mg/kg, including 2.00 mg/kg)) | >6 | >8 | 0 | 0 | < 6.00 | < 6.00 | 0.13 ± 0.04 | 2.73 ± 1.08 | 5.76 ± 0.80 | Red urine(8/8), Hindlimb; also recorded: rigidity (1/8) |  |  |  |
| CCOC(=O)c1cc(F)nn1[C@H](C)c1ccccc1 [Compound A49] |  |  | >2 | >9 | 0 | 0 |  |  | 0.28 ± 0.04 | 2.69 ± 1.18 |  | Red urine(8/8), Hindlimb; also recorded: rigidity (2/8), broken-; also recorded: winded(1/8), Tremor(3/8) | 2 to 6 | < 7.00 | < 7.00 |
| CCOC(=O)c1c(F)cnn1[C@H](C)c1ccccc1 [Compound A70] |  |  | >6 | >12 | 0 | 0 |  |  | 0.31 ± 0.08 | 2.51 ± 1.03 |  |  | 1 to 2 | < 7.00 | < 7.00 |
| C[C@H](c1ccccc1)n1nc(F)cc1C(=O)OC(C)(C)C [Compound A57] |  |  | >7 | >15 | 0 | 0 |  |  | 0.42 ± 0.16 | 1.48 ± 0.51 |  | Red and urine(7/7), GeneralTremor and (2/7), Tetany and convulsion(2/7) | 2 to 6 | < 7.00 | < 7.00 |
| CO[C@H]1C[C@@H](OC(=O)c2c(F)c(F)nn2[C@H](C)c2ccccc2)C1 [Compound A94] |  |  | >12 | >12 | 0 | 0 |  |  | 0.33 ± 0.12 | 1.26 ± 0.40 |  | Red and urine(8/8), Tremor(3/8), and Four limbs and rigidity(2/8), Euphoria(1/8) | 0.5 to 1 | < 6.00 | < 6.00 |
| C=C=CC1(OC(=O)c2c(C(F)(F)F)cnn2[C@H](C)c2ccccc2)COC1 [Compound A100] |  |  | >6 | >14 | 0 | 0 |  |  | 0.49 ± 0.17 | 3.21 ± 0.89 |  | Red urine(8/8), Indirect; also recorded: tremor Tremor(4/8), Four; also recorded: limbs; also recorded: rigidity(2/8), Euphoria(2/8) | 2 to 6 | < 7.00 | < 7.00 |
| COC(=O)C1=C(OC(=O)c2cc(F)nn2[C@H](C)c2ccccc2)CCCC1 [Compound A54] |  |  | >9 | >12 | 0 | 0 |  |  | 0.69 ± 0.11 | 2.13 ± 1.80 |  | rigidity; also recorded: (3/8), GeneralTremor(1/8); also recorded: Red urine(8/8), Hindlimb | 1 to 2 | < 7.00 | < 7.00 |
